The text below walks through data of the NIST ThermoML archive (doi:10.1021/acs.jced.8b00425).

± gives the expanded uncertainty stated by the source.

The nature of data set [1]: Molar enthalpy of transition or fusion. The conditions noted are these: Crystal; DSC.
The conditions of data set [2]: Crystal; DSC.

Consider `O=c1[nH]cc(F)c(=O)[nH]1` [5-fluoro-2,4(1H,3H)-pyrimidinedione], for which the “Molar enthalpy of transition or fusion” value in data set [1] amounted to 28.8 ± 0.74 kJ/mol. The Triple point temperature in data set [2] is listed as 555.66 ± 0.88 K.
